Experimental data as given in patent US20200055839A1 (priority 2017, published 2020).

The compounds below were run on NL-RLuc virus (assay: Inhibition of HIV replication (NL-RLuc virus, luciferase readout in MT-2 cells)). Details: Human immunodeficiency virus 1, MT2, 120 h, MT-2 cells infected with NL-RLuc virus, 5 days of incubation, 10% FBS, at least 2 experiments.
Assay type: cell-based
Method in brief: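 MT-2 cells infected with NL4-3-derived virus carrying Renilla luciferase in place of part of nef, grown 5 days with serial compound dilutions in RPMI 1640/10% FBS. Virus growth read as luciferase expression. EC50 from median effect equation, at least 2 experiments.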
`Cc1nc(-n2ccnc2)c(-c2ccc(OCCc3ccc(F)cc3)cc2)c(N2CCC(C)(C)CC2)c1[C@H](OC(C)(C)C)C(=O)O` [Example 45, (S)-2-(tert-Butoxy)-2-(4-(4,4-dimethylpiperidin-1-yl)-5-(4-(4-fluorophenethoxy)phenyl)-6-(1H-imidazol-1-yl)-2-methylpyridin-3-yl)acetic acid] gave an EC50 of 4 nM.
For `Cc1nc(-c2ccn(C)n2)c(-c2ccc(OCCc3ccc(F)cc3)cc2)c(N2CCC(C)(C)CC2)c1[C@H](OC(C)(C)C)C(=O)O` [Example 46, (S)-2-(tert-Butoxy)-2-(4-(4,4-dimethylpiperidin-1-yl)-5-(4-(4-fluorophenethoxy)phenyl)-2-methyl-6-(1-methyl-1H-pyrazol-3-yl)pyridin-3-yl)acetic acid], the EC50 was 4 nM.
Compound `Cc1nc(-c2cnn(C3CC3)c2)c(-c2ccc(OCCc3ccc(F)cc3)cc2)c(N2CCC(C)(C)CC2)c1[C@H](OC(C)(C)C)C(=O)O` [Example 47, (S)-2-(tert-Butoxy)-2-(6-(1-cyclopropyl-H-pyrazol-4-yl)-4-(4,4-dimethylpiperidin-1-yl)-5-(4-(4-fluorophenethoxy)phenyl)-2-methylpyridin-3-yl)acetic acid] has an EC50 of 4 nM.
`Cc1nc(-c2ccn(C)c2)c(-c2ccc(OCCc3ccc(F)cc3)cc2)c(N2CCC(C)(C)CC2)c1[C@H](OC(C)(C)C)C(=O)O` [Example 48, (S)-2-(tert-Butoxy)-2-(4-(4,4-dimethylpiperidin-1-yl)-5-(4-(4-fluorophenethoxy)phenyl)-2-methyl-6-(1-methyl-1H-pyrrol-3-yl)pyridin-3-yl)acetic acid] gave an EC50 of 3 nM.
`Cc1nc(-c2cnn(C)c2C)c(-c2ccc(OCCc3ccc(F)cc3)cc2)c(N2CCC(C)(C)CC2)c1[C@H](OC(C)(C)C)C(=O)O` [Example 49, (S)-2-(tert-Butoxy)-2-(6-(1,5-dimethyl-1H-pyrazol-4-yl)-4-(4,4-dimethylpiperidin-1-yl)-5-(4-(4-fluorophenethoxy)phenyl)-2-methylpyridin-3-yl)acetic acid] was tested, and the EC50 was 0.7 nM.
For `Cc1nc(-c2ccnn2C)c(-c2ccc(OCCc3ccc(F)cc3)cc2)c(N2CCC(C)(C)CC2)c1[C@H](OC(C)(C)C)C(=O)O` [Example 50, (S)-2-(tert-Butoxy)-2-(4-(4,4-dimethylpiperidin-1-yl)-5-(4-(4-fluorophenethoxy)phenyl)-2-methyl-6-(1-methyl-1H-pyrazol-5-yl)pyridin-3-yl)acetic acid], the EC50 was 2 nM.
`Cc1nc(-c2cn[nH]c2)c(-c2ccc(OCCc3ccc(F)cc3)cc2)c(N2CCC(C)(C)CC2)c1[C@H](OC(C)(C)C)C(=O)O` [Example 51, (S)-2-(tert-Butoxy)-2-(4-(4,4-dimethylpiperidin-1-yl)-5-(4-(4-fluorophenethoxy)phenyl)-2-methyl-6-(1H-pyrazol-4-yl)pyridin-3-yl)acetic acid] gave an EC50 of 5 nM.
Compound `Cc1nc(NCCCN2CCN(C)CC2)c(-c2ccc(OCCc3ccc(F)cc3)cc2)c(N2CCC(C)(C)CC2)c1[C@H](OC(C)(C)C)C(=O)O` [Example 52, (S)-2-(tert-Butoxy)-2-(4-(4,4-dimethylpiperidin-1-yl)-5-(4-(4-fluorophenethoxy)phenyl)-2-methyl-6-((3-(4-methylpiperazin-1-yl)propyl)amino)pyridin-3-yl)acetic acid] has an EC50 of 1 nM.
`Cc1cn(-c2nc(C)c([C@H](OC(C)(C)C)C(=O)O)c(N3CCC(C)(C)CC3)c2-c2ccc(OCCc3ccc(F)cc3)cc2)c(C)n1` [Example 53, (S)-2-(tert-Butoxy)-2-(6-(2,4-dimethyl-1H-imidazol-1-yl)-4-(4,4-dimethylpiperidin-1-yl)-5-(4-(4-fluorophenethoxy)phenyl)-2-methylpyridin-3-yl)acetic acid] gave an EC50 of 3 nM.
In the case of `Cc1nc(-n2ccnc2C)c(-c2ccc(OCCc3ccc(F)cc3)cc2)c(N2CCC(C)(C)CC2)c1[C@H](OC(C)(C)C)C(=O)O` [Example 54, (S)-2-(tert-Butoxy)-2-(4-(4,4-dimethylpiperidin-1-yl)-5-(4-(4-fluorophenethoxy)phenyl)-2-methyl-6-(2-methyl-1H-imidazol-1-yl)pyridin-3-yl)acetic acid], the EC50 is reported as 2 nM.
`Cc1nc(-c2cn(C)cn2)c(-c2ccc(OCCc3ccc(F)cc3)cc2)c(N2CCC(C)(C)CC2)c1[C@H](OC(C)(C)C)C(=O)O` [Example 57, (S)-2-(tert-Butoxy)-2-(4-(4,4-dimethylpiperidin-1-yl)-5-(4-(4-fluorophenethoxy)phenyl)-2-methyl-6-(1-methyl-1H-imidazol-4-yl)pyridin-3-yl)acetic acid] showed an EC50 of 13 nM.
Work on `Cc1nc(N)c(-c2cc(F)c(F)c(F)c2)c(N2CCC(C)(C)CC2)c1[C@H](OC(C)(C)C)C(=O)O` [Example 58, (S)-2-(6-Amino-4-(4,4-dimethylpiperidin-1-yl)-2-methyl-5-(3,4,5-trifluorophenyl)pyridin-3-yl)-2-(tert-butoxy)acetic acid] yielded an EC50 of 18 nM.
`Cc1cc(C)n(-c2nc(C)c([C@H](OC(C)(C)C)C(=O)O)c(N3CCC(C)(C)CC3)c2-c2ccc(OCCc3ccc(F)cc3)cc2)n1` [Example 59, (S)-2-(tert-Butoxy)-2-(6-(3,5-dimethyl-1H-pyrazol-1-yl)-4-(4,4-dimethylpiperidin-1-yl)-5-(4-(4-fluorophenethoxy)phenyl)-2-methylpyridin-3-yl)acetic acid] showed an EC50 of 3 nM.
In the case of `Cc1nc(N)c(-c2cc(F)c(OCCc3ccc(F)cc3)c(F)c2)c(N2CCC(C)(C)CC2)c1[C@H](OC(C)(C)C)C(=O)O` [Example 60, (S)-2-(6-Amino-5-(3,5-difluoro-4-(4-fluorophenethoxy)phenyl)-4-(4,4-dimethylpiperidin-1-yl)-2-methylpyridin-3-yl)-2-(tert-butoxy)acetic acid], the EC50 is reported as 25 nM.
In the case of `Cc1cc(-c2c(N)nc(C)c([C@H](OC(C)(C)C)C(=O)O)c2N2CCC(C)(C)CC2)cc(C)c1OCCc1ccc(F)cc1` [Example 61, (S)-2-(6-Amino-4-(4,4-dimethylpiperidin-1-yl)-5-(4-(4-fluorophenethoxy)-3,5-dimethylphenyl)-2-methylpyridin-3-yl)-2-(tert-butoxy)acetic acid], the EC50 is reported as 11 nM.
`Cc1nc(-n2cccn2)c(-c2ccc(OCCc3ccc(F)cc3)cc2)c(N2CCC(C)(C)CC2)c1[C@H](OC(C)(C)C)C(=O)O` [Example 62, (S)-2-(tert-Butoxy)-2-(4-(4,4-dimethylpiperidin-1-yl)-5-(4-(4-fluorophenethoxy)phenyl)-2-methyl-6-(1H-pyrazol-1-yl)pyridin-3-yl)acetic acid] was tested, and the EC50 was 3 nM.
In the case of `Cc1nc(Nc2ccccn2)c(-c2ccc(OCCc3ccc(F)cc3)cc2)c(N2CCC(C)(C)CC2)c1[C@H](OC(C)(C)C)C(=O)O` [Example 63, (S)-2-(tert-Butoxy)-2-(4-(4,4-dimethylpiperidin-1-yl)-5-(4-(4-fluorophenethoxy)phenyl)-2-methyl-6-(pyridin-2-ylamino)pyridin-3-yl)acetic acid], the EC50 is reported as 6 nM.
For `Cc1nc(Nc2cccnc2)c(-c2ccc(OCCc3ccc(F)cc3)cc2)c(N2CCC(C)(C)CC2)c1[C@H](OC(C)(C)C)C(=O)O` [Example 64, (S)-2-(tert-Butoxy)-2-(4-(4,4-dimethylpiperidin-1-yl)-5-(4-(4-fluorophenethoxy)phenyl)-2-methyl-6-(pyridin-3-ylamino)pyridin-3-yl)acetic acid], the EC50 was 5 nM.
In the case of `Cc1cccnc1Nc1nc(C)c([C@H](OC(C)(C)C)C(=O)O)c(N2CCC(C)(C)CC2)c1-c1ccc(OCCc2ccc(F)cc2)cc1` [Example 65, (S)-2-(tert-Butoxy)-2-(4-(4,4-dimethylpiperidin-1-yl)-5-(4-(4-fluorophenethoxy)phenyl)-2-methyl-6-((3-methylpyridin-2-yl)amino)pyridin-3-yl)acetic acid], the EC50 is reported as 2 nM.
With `Cc1nc(Nc2cncnc2)c(-c2ccc(OCCc3ccc(F)cc3)cc2)c(N2CCC(C)(C)CC2)c1[C@H](OC(C)(C)C)C(=O)O` [Example 66, (S)-2-(tert-Butoxy)-2-(4-(4,4-dimethylpiperidin-1-yl)-5-(4-(4-fluorophenethoxy)phenyl)-2-methyl-6-(pyrimidin-5-ylamino)pyridin-3-yl)acetic acid] the EC50 was 2 nM.
Work on `Cc1nc(Nc2ccccc2)c(-c2ccc(OCCc3ccc(F)cc3)cc2)c(N2CCC(C)(C)CC2)c1[C@H](OC(C)(C)C)C(=O)O` [Example 67, (S)-2-(tert-Butoxy)-2-(4-(4,4-dimethylpiperidin-1-yl)-5-(4-(4-fluorophenethoxy)phenyl)-2-methyl-6-(phenylamino)pyridin-3-yl)acetic acid] yielded an EC50 of 27 nM.
Work on `Cc1nc(N)c(-c2cc(F)c(OCCc3ccc(F)cc3)cc2F)c(N2CCC(C)(C)CC2)c1[C@H](OC(C)(C)C)C(=O)O` [Example 68, (2S)-2-(6-Amino-5-(2,5-difluoro-4-(4-fluorophenethoxy)phenyl)-4-(4,4-dimethylpiperidin-1-yl)-2-methylpyridin-3-yl)-2-(tert-butoxy)acetic acid] yielded an EC50 of 2 nM.
For `Cc1nc(N)c(-c2ccc(OCCc3ccc(F)cc3)cc2F)c(N2CCC(C)(C)CC2)c1[C@H](OC(C)(C)C)C(=O)O` [Example 72, (2S)-2-(6-Amino-4-(4,4-dimethylpiperidin-1-yl)-5-(2-fluoro-4-(4-fluorophenethoxy)phenyl)-2-methylpyridin-3-yl)-2-(tert-butoxy)acetic acid], the EC50 was 2 nM.
`Cc1nc(N)c(-c2ccc(OCCc3ccc(F)cc3)c(F)c2)c(N2CCC(C)(C)CC2)c1[C@H](OC(C)(C)C)C(=O)O` [Example 73, (S)-2-(6-Amino-4-(4,4-dimethylpiperidin-1-yl)-5-(3-fluoro-4-(4-fluorophenethoxy)phenyl)-2-methylpyridin-3-yl)-2-(tert-butoxy)acetic acid] showed an EC50 of 1 nM.

Same assay, conditions: MT-2 cells infected with NL-RLuc virus, 5 days of incubation, 10% FBS, at least 2 experiments
`Cc1nc(Nc2ncccn2)c(-c2ccc(OCCc3ccc(F)cc3)c(F)c2)c(N2CCC(C)(C)CC2)c1[C@H](OC(C)(C)C)C(=O)O` [Example 69, (S)-2-(tert-Butoxy)-2-(4-(4,4-dimethylpiperidin-1-yl)-5-(3-fluoro-4-(4-fluorophenethoxy)phenyl)-2-methyl-6-(pyrimidin-2-ylamino)pyridin-3-yl)acetic acid] showed an EC50 of 3 nM.
